Structures are written as SMILES. Square brackets hold non-standard residues; d marks the D form. Peptide text beside a SMILES is read from it.

For one data set, the system named is human whole blood. The data set can be described thus: CD3/CD28-induced TNF-α release in human whole blood, 3 days. It counts as cell-based. The settings on record: 1, 3, 10 μM, antibodies 2 μg/mL. How it is done: FIG. 24 JNK inhibition and TNF-α release in human whole blood. The JNK inhibitor with SEQ ID NO: 172 was added at three different concentrations, namely 1, 3 and 10 μM 1 h before whole blood stimulation with CD3+/−CD28 antibodies (2 μg/mL) for 3 days.
Whole blood from human healthy volunteers was collected using a venipuncture connected to a pre-labeled vacuum tube containing sodium citrate. Tubes are gently mixed by inversion 7-8 times; and are then kept at RT until stimulation. 350 μl of RPMI+P/S were added into 1.2 ml-96-well plate. 10 times concentrated of SEQ ID NO: 172 was prepared in RPMI+P/S (50 μl per well). 50 μl was added into 1.2 ml-96 well plates. 50 μl of whole blood was then added in each well where either medium alone or JNK inhibitor has been previously added. Whole blood was incubated at 37° C., 5% CO2 for 60 min. 50 μl/well of ligands diluted in RPMI+P/S was prepared, corresponding to the final dilution 10 times concentrated. After 60 min of incubation, ligand was added; wells were then mixed by pipetting up and down the blood. Whole blood was incubated for 3 days at 37° C. (wells were mixed by pipetting each well up and down once per day). […] Cytokine were then measured using standard Elisa kits. Results are expressed as pg/ml of supernatant of the measured cytokine. […]

Data set [1] has as its system primary rat lymph-nodes purified T cells. The data set can be described thus: CD3/CD28-induced IL-2 release in primary rat lymph-nodes purified T cells. It counts as cell-based. The conditions noted are these: added 1 h before CD3/CD28 (2 μg/mL); supernatant 24 h. As to the method: Control rat were sacrificed and lymph-nodes were harvested. T cells further were purified (using magnetic negative selection) and plated into 96-well plates at 200.000 cells/well. Cells were treated with anti-rat CD3 and anti-rat CD28 antibodies (2 μg/mL). JNK inhibitor with SEQ ID NO: 172 was added to the cultures 1 h before CD3/CD28 treatment and IL-2 release was assessed in supernatant 24 h after treatment.
Control animal were sacrificed, lymph nodes (LN) were harvested and kept in complete RPMI medium. LN were smashed with complete RPMI on 70 μm filter using a 5 ml piston. A few drops of media were added to keep strainer wet. Cells were centrifuged for 7 min at 450 g and 4° C. Pellet was resuspended in 5 ml fresh medium. Cells were passed again through cell strainer. An aliquot of cells was counted, while cells were centrifuged again 10 min at 1400 rpm and 4° C. Cells were resuspended in MACS buffer (80 μl of MACS buffer per 10^7 cells). 10 μl of anti-rat MHC microbeads were added per 10 million cells, cells were incubated for 15 min at 4°-8° C. Cells were washed with 15 ml MACS buffer and centrifuge for 7 min at 700 g and 4° C. […] Resuspended cells were counted and plated at density of 200000 cells/well in 100 μl of complete medium. […] Cytokines were then measured using standard Elisa kits. Results are expressed as pg/ml of supernatant of the measured cytokine. […]

For data set [2] the following is noted: dissolved in 0.9% NaCl, up to 0.4 mg/ml. The source says:
To receive three different doses (cf. above, groups table) it has been serially diluted (1:10 fold).

The test system of the next data set is JNK. The data set can be described thus: JNK and c-Jun activation after Aβ42 stress in PKR−/− primary cortical neurons. Type of data set: cell-based, mouse. The settings on record: 10 μM, 2 μM Aβ42. How it is done:
To obtain primary cortical neuronal cultures, E15.5 mice embryos were dissected in PBS (Phosphate Buffered Saline) 6% glucose, on ice. Embryos cortices were minced into small pieces and treated with PBS glucose trypsin (Sigma Aldrich, Saint-Louis, USA) for 20 min at 37° C. Dissociated cortical cells were cultured in Neurobasal media complemented with B27, Glutamax and penicillin-streptomycin (Gibco). Neurons were cultured at 37° C., 5% CO2 on pre-coated with poly-L-lysin (Sigma Aldrich) petri dishes. Neurons were cultured to maturity (7 days) before use.
To induce […] stress 2 μM of Aβ1-42 (Thermo Fisher Scientific, Mass., USA) were used during 5 h on cortical neurons. Aβ42-1 inversed peptide (Thermo Fisher Scientific) was used as negative control. AP 1-42 and Aβ42-1 were dissolved in pure water and incubated at 37° C. for 48 h before use.
To inhibit JNK, cortical neurons were pre-treated with 10 μM of XG-104 1 h before cell-stress treatment.
For immunoblot analysis cells were lysed on ice in a lysis buffer containing […] NaPi pH 7.8, […] NaCl, 1% Triton, 0.5% DOC, 0.1% SDS, 10% glycerol, 0.1 μM calyculin A, 1 mM Na3VO4 and 1× of a protease inhibitor cocktail (Sigma Aldrich). Lysates were sonicated and centrifugated 10 min at 15000 g at 4° C. The supernatant protein concentration was determined with the Micro BCA protein assay kit (Thermo Scientific). Thirty micrograms of proteins were resolved on SDS-PAGE and transferred onto nitrocellulose membrane. After blocking with TBS 5% skim milk, the membranes were probed with primary antibodies to JNK full, c-Jun, PKR, eIF2α (Santa Cruz, Danvers, USA), pJNK (Millipore, Billerica, USA), phosphor eIF2a (Thermo Fisher Scientific), PARP and tubulin (Cell Signaling, Danvers, USA). IR Dyes 800 and 700 (Rockland Immunochemical Inc, Gilbertsville, USA) antibodies were used as secondary antibodies. Blots were reveled with Odyssey imaging system (LI-COR Biosciences, Lincoln, USA).

In the case of `CC(C)C[C@H](NC(=O)[C@H](CC(N)=O)NC(=O)[C@H](CC(C)C)NC(=O)[C@@H](NC(=O)[C@@H](C)NC(=O)[C@@H]1CCCN1C(=O)[C@H](CCCNC(=N)N)NC(=O)[C@@H](CCCCN)NC(=O)[C@@H]1CCCN1C(=O)[C@H](CCCNC(=N)N)NC(=O)[C@@H](CCCNC(=N)N)NC(=O)[C@H](CCCNC(=N)N)NC(=O)[C@H](CCCNC(=N)N)NC(=O)[C@H](CCC(N)=O)NC(=O)[C@@H](CCCNC(=N)N)NC(=O)[C@H](CCCNC(=N)N)NC(=O)[C@H](CCCCN)NC(=O)[C@H](CCCCN)NC(=O)[C@H](N)CCCNC(=N)N)[C@@H](C)O)C(=O)N[C@H](Cc1ccccc1)C(N)=O` [SEQ ID NO: 172, rKKRrQRRrRPkRPaTLNLf] (H-[dR]KKR[dR]QRR[dR]RP[dK]RP[dA]TLNL[dF]-NH2; N-terminus assumed), in the data set on human whole blood, the “CD3/CD28-induced TNF-α release” value is listed as “did reduce the CD3/CD28-induced TNF-α release in a dose-dependent manner”. Also, the “CD3/CD28-induced IL-2 release” value in data set [1] is recorded as “Dose-dependent inhibition”. For the same compound, the solubility entry in data set [2] is “readily soluble and did not fall out of solution”. In the data set with JNK (PKR−/− cultures), the c-Jun activation entry is on record as “does not modify c-Jun activation” and the “decrease of c-Jun protein expression” value is given as 62%. Besides, the JNK activation in the data set with JNK (PKR−/− neurons) is on record as −60%.

The values above are taken from patent US11331364B2, “Use for JNK inhibitor molecules for treatment of various diseases” (Xigen Inflammation Ltd., priority 2014, dated 2022).
